# Earlier results as cited in PMC9298350 (British Journal of Clinical Pharmacology, 2021).
structure (smiles),measurement,setting,value
"Cc1c(N(C)CS(=O)(=O)O)c(=O)n(-c2ccccc2)n1C [metamizole, Metamizole]",Frequency of metamizole-associated agranulocytosis,,0.46–1.63 cases per 10^6 daily doses
same,Mortality associated with ingestion,review of the available literature,0.25 per 10^6 prescriptions
